Reference: patent publication US20120151612A1, “NON-SURGICAL APPROACH TO PREVENT AND CORRECT CRANIOFACIAL MALFORMATIONS DURING DEVELOPMENT” (UNIVERSITY OF SOUTHERN CALIFORNIA, priority 2010, published 2012)
Entries after “also recorded” stand apart in the source; their conditions may differ.

Columns and labels:
[1] = system: MEE of E13.5 wild type palatal shelves; experiment: TUNEL apoptosis assay in palatal explants; assay type: cell-based, mice; conditions: Shh beads vs BSA beads
Protocol: (§1) Palatal shelf organ cultures and bead implantation. Timed-pregnant mice were sacrificed on postcoital day 13.5 (E13.5). Genotyping was carried out as previously described (Depew et al., 1999; Satokata and Maas, 1994). Paired secondary palatal shelves were microdissected and cultured in serumless, chemically-defined medium as previously described (Ito et al., 2003). For bead implantation, Affi-Gel blue agarose beads (BioRad) were soaked in proteins as previously described (Zhang et al., 2002). Tissues were harvested after 24 hours of culture and fixed in 4% paraformaldehyde for processing. Shh N-terminal peptide (R & D 7 systems) was used at 1 mg/ml, anti-Shh antibody (Developmental Studies Hybridoma Bank) was used at 0.30 mg/ml, and BSA was used at 10 ng/ml. Neutralizing antibodies to Fgf7 (MAB251) and Mouse IgG1 (MAB002) (R & D Systems) were added to the culture medium at concentrations of 50 μg/ml.
(§2) Apoptosis and cell proliferation. Following treatment with […] proteinase K for 15 minutes at room temperature, apoptotic cells were assayed by the TUNEL procedure using the In Situ Cell Death Detection (fluorescein) kit (Roche Molecular Biochemicals) by following the manufacturer's protocol. Cell proliferation was scored by injection of BrdU (5-bromo-2′-deoxy-uridine, Sigma. 100 μg/g body weight) into pregnant females 1 hour before recovery of embryos. […]

Fgf7 expression = experiment: In situ hybridization of Fgf7 in treated palatal explants; assay type: cell-based, mice; conditions: Shh beads vs BSA beads
Protocol: as §1
(§3) In situ hybridization. Samples for whole-mount and section in situ hybridization were fixed in freshly made 4% paraformaldehyde/PBS. In situ hybridizations were performed as previously described (Xu et al., 2005). The following cDNAs were used to generate antisense riboprobes: a 1.2 kb fragment of mouse Msx1, a 900 bp mouse Dlx5, a 1.6 kb mouse Gli1, and 640 bp mouse Shh. […]

[2] = system: palatal mesenchyme of E13.5 palatal explants; experiment: Palatal shelf organ culture with bead implantation or antibody, BrdU cell proliferation and fusion (Example 1); assay type: cell-based, mice
Protocol: as §1, with “Tissues were harvested after 24 hours of culture and fixed in 4% paraformaldehyde for processing.” left out
as §2, with “embryos. For palatal organ culture, BrdU was supplemented into culture medium at concentration of 100 μM for 2 hours before harvest.” for “embryos.”

MEPM cells = experiment: Pulse-chase analysis of lipid droplet formation; assay type: cell-based, mice
Protocol: Pulse-chase analysis of lipid droplet formation. Chemical inducers, oleic acid for lipogenesis and isoproterenol for lipolysis, were added into culture medium to analyze lipid droplet formation. The number of lipid droplets per cell was counted. Oleic acid was added to the medium at 100 μM for 0, 60, and 120 min, and then washed out and changed to the medium with 100 μM isoproterenol for 10 and 30 min. Twenty cells were counted at each time point.

p38 MAPK [3] = experiment: Immunoblot of p38 MAPK and 14-3-3ζ/δ phosphorylation in primary MEPM cells; assay type: cell-based, mice; conditions: Tgfbr2^fl/fl; Wnt1-Cre MEPM cells, 10 μM for 24 hours
Protocol: (§4) Primary MEPM cells. Primary MEPM cells were obtained from E13.5 embryos. Briefly, palatal shelves were dissected at E13.5, and trypsinized for 30 minutes at 37° C. in a CO2 incubator. After pipetting thoroughly, cells were cultured in Dulbecco's modified Eagle's medium containing 10% fetal bovine serum supplemented with penicillin, streptomycin, L-glutamate, sodium pyruvate, and nonessential amino acids.

[4] = system: Tgfbr2^fl/fl; Wnt1-Cre palate; experiment: Palatal shelf organ culture, BrdU-labeled nuclei (Example 2); assay type: cell-based, mice; conditions: ex vivo organ culture, 100 μM, 24 hours
Protocol: (§5) Histological examination. Hematoxylin and eosin staining and BrdU staining were performed as described previously. Immunohistochernical staining was performed as described previously. Antibodies used for immunohistochemistry were anti-β-spectrin rabbit polyclonal, and anti-Tgf-βRIII mouse monoclonal antibodies (Santa Cruz Biotechnology), anti-Tgf-β2 mouse monoclonal, and anti-14-3-3ζ/δ rabbit polyclonal antibodies (Abeam). Fluorescence images were obtained using a fluorescence microscope (Model IX71, Olympus).
Palatal shelf organ culture. Time-pregnant mice were sacrificed at E13.5. Genotyping was carried out as described above. The palatal shelves were microdissected and cultures in serum-less chemically defined medium as previously described. After 24 hours in culture treated with p38 MAPK inhibitor SB203580 (100 μM), and neutralizing antibody for Tgf-β2 (2 μg/ml) or Tgf-βRIII (2 μg/ml), palates were harvested, fixed in 4% paraformaldehyde/0.1 M phosphate buffer (pH 7.4) and processed.

[5] = system: Tgfbr2^fl/fl; Wnt1-Cre MEPM cells; experiment: Lipid droplet accumulation (Oil Red O staining) in primary MEPM cells; assay type: cell-based, mice
Protocol: Histological examination. Cryosections were stained with Oil Red O to detect lipid production. Prepared sections were washed three times in phosphate buffer saline (PBS) (each wash 5 min) and fixed in 4% formaldehyde in 0.1 M phosphate buffer for 1 h at room temperature. Sections were then incubated for 15 min in 60% isopropanol and stained for 15 min with a filtered solution of three parts of Oil Red O (saturated in isopropanol) and two parts of ddH2O. For the next step, slides were briefly rinsed in 60% isopropanol and washed thoroughly in ddH2O. Cells were counterstained in Mayers Hematoxylin Solution.
as §4

[6] = system: Tgfbr2^fl/fl and Tgfbr2^fl/fl; Wnt1-Cre embryos; experiment: Histological analyses of embryo organs (heart, kidney, liver) after feeding telmisartan to pregnant females; assay type: in vivo, mice
Protocol: (§6) Animals. To generate Tgfbr2^fl/fl; Wnt1-Cre mice, we mated Tgfbr2^fl/+; Wnt1-Cre with Tgfbr2^fl/fl mice. To generate Tgfbr2^fl/fl; Wnt1-Cre; Tgfb2^+/− mice, we mated Tgfbr2^fl/+; Wnt1-Cre; Tgfb2^+/− with Tgfbr2^fl/fl mice. To generate Tgfbr2^fl/fl; Wnt1-Cre; Alk5^fl/+ mice, we mated Tgfbr2^fl/+; Wnt1-Cre; Alk5^fl/fl with Tgfbr2^fl/fl; Alk5^fl/fl mice. Genotyping was performed using PCR primers as described previously^28, 29. Female Tgfbr2^fl/fl mice, which underwent timed matings with Tgfbr2^fl/+; Wnt1-Cre male mice, were treated with oral telmisartan (0.5 mg in 25 μl dimethyl sulfoxide per day by a feeding tube) or vehicle (25 μl dimethl sulfoxide by a feeding tube) from 0.5 day post-coitum (E0.5). Therapy was continued throughout pregnancy.
as §5, with “Immunohistochemical” for “Immunohistochernical”, “anti-Tgf-βrIII” for “anti-Tgf-βRIII”, “anti-14-3-3” for “anti-14-3-3ζ/δ”

[7] = system: Tgfbr2^fl/fl; Wnt1-Cre mice; experiment: Rescue of cleft palate in Tgfbr2^fl/fl; Wnt1-Cre embryos after feeding telmisartan to pregnant females; assay type: in vivo; conditions: for cleft palate (in words): Tgfbr2 mutant mice, treatment of pregnant mice
Protocol: as §6

p38 MAPK [8] = experiment: Immunoblotting of p38 MAPK activity in mice after telmisartan treatment; assay type: in vivo; conditions: Tgfbr2^fl/fl; Wnt1-Cre mice after telmisartan treatment
Protocol: Animals. To generate Tgfbr2^fl/fl; Wnt1-Cre mice, we mated Tgfbr2^fl/+; Wnt1-Cre with Tgfbr2^fl/fl mice. To generate Tgfbr2^fl/fl; Wnt1-Cre; Tgfb2^+/- mice, we mated Tgfbr2^fl/+; Wnt1-Cre; Tgfb2^+/- with Tgfbr2^fl/fl mice. To generate Tgfbr2^fl/fl; Wnt1-Cre; Alk5^fl/+ mice, we mated Tgfbr2^fl/+; Wnt1-Cre; Alk5^fl/fl with Tgfbr2^fl/fl; Alk5^fl/fl mice. Genotyping was performed using PCR primers as described previously^28, 29. Female Tgfbr2^fl/fl mice, which underwent timed matings with Tgfbr2^fl/+; Wnt1-Cre male mice, were treated with oral telmisartan (0.5 mg in 25 μl dimethyl sulfoxide per day by a feeding tube) or vehicle (25 μ[…] sulfoxide by a feeding tube) from 0.5 day post-coitum (E0.5). Therapy was continued throughout pregnancy. Immunological analysis. Immunoblots were performed as described previously. Antibodies used for immunoblotting were as follows: rabbit polyclonal antibodies against p38, JNK, and phospho-JNK (Cell Signaling Technology), 14-3-3ζ/δ, Smad2/3, […] (Abeam), phospho-14-3-3 (ABR), 14-3-3ε, and β-spectrin (Santa Cruz Biotechnology); rabbit monoclonal antibodies against phospho-p38, and phospho-Smad2 (Cell Signaling Technology); and mouse monoclonal antibodies against Smad4, and Tgf-βrIII (Santa Cruz Biotechnology), Tgf-β2 (Abeam), and GAPDH (Chemicon). MEPM cells were treated with or without p38 MAPK inhibitor SB203580 at 10 μM for 24 hours.

[9] = system: Tgfbr2^fl/fl; Wnt1-Cre mice; experiment: Triacylglycerol level in mice after telmisartan treatment; assay type: in vivo; conditions: E18.5
Protocol: as §6
Triacylglycerol amount. Triacylglycerol amounts were measured by an enzymatic method using N-ethyl-N-(2-hydroxy-3-sulfopropyl)-3,5-dimethoxyaniline sodium salt according to the manufacturer's instructions (Wako). Data is expressed as mg per 100 mg protein.

[10] = system: angiotensin-mediated Tgf-β signaling; conditions: patients of Marfan syndrome; cited from earlier work
[11] = system: Shh expression in the palatal epithelium; experiment: In situ hybridization of Shh in treated palatal explants; assay type: cell-based, mice; conditions: Fgf7 beads
Protocol: as §1, §3

Molecule: Shh: Shh N-terminal peptide (R & D systems) used at 1 mg/ml, soaked into Affi-Gel blue agarose beads
- apoptosis in the MEE (TUNEL) [1]: did not affect apoptosis
- Fgf7 expression (Fgf7 expression): repressed
- palatal mesenchyme cell proliferation (BrdU) ([2]; E13.5 wild type palatal explants, Shh beads vs BSA beads): enhanced
- palatal fusion of explants ([2]; Shh beads, two days of culture): able to fuse

Molecule: CCCCCCCC/C=C\CCCCCCCC(=O)O [oleic acid]
- number of lipid droplets (MEPM cells; MEPM cells of both Tgfbr2^fl/fl and Tgfbr2^fl/fl, Wnt1-Cre mice, oleic acid 100 μM): increased

Molecule: C[S+]([O-])c1ccc(-c2nc(-c3ccc(F)cc3)c(-c3ccncc3)[nH]2)cc1 (centres unmarked) [SB203580, 4-[4-(4-fluorophenyl)-2-(4-methylsulfinylphenyl)-1H-imidazol-5-yl]pyridine]
- phosphorylation of 14-3-3ζ/δ (p38 MAPK [3]): inhibited
- phosphorylation of p38 (Mapk14) (p38 MAPK [3]): inhibited
- cell proliferation defect (BrdU-labeled nuclei) [4]: rescued cell proliferation
- lipid droplet accumulation [5]: failed to detect lipid droplet accumulation; also recorded: Lipid droplets did not accumulate

Molecule: CC(C)NCC(O)c1ccc(O)c(O)c1 (centres unmarked) [isoproterenol]
- number of lipid droplets (MEPM cells; Tgfbr2^fl/fl MEPM cells, after switch to 100 μM isoproterenol): decreased immediately
- lipid droplet number (MEPM cells; Tgfbr2^fl/fl, Wnt1-Cre MEPM cells, after switch to 100 μM isoproterenol): remained high

Molecule: CCCc1nc2c(C)cc(-c3nc4ccccc4n3C)cc2n1Cc1ccc(-c2ccccc2C(=O)O)cc1 [telmisartan, 2-(4-{[4-methyl-6-(1-methyl-1H-1,3-benzodiazol-2-yl)-2-propyl-1H-1,3-benzodiazol-1-yl]methyl}phenyl)benzoic acid]
- effect on kidney or liver histology ([6]; Tgfbr2^fl/fl and Tgfbr2^fl/fl, Wnt1-Cre embryos): does not appear to affect kidney or liver
- heart defect ([6]; Tgfbr2^fl/fl, Wnt1-Cre mice after telmisartan): does not rescue the heart defect
- side-effects in other organs ([6]; embryos after telmisartan to pregnant females): without obvious side-effects in other organs
- cell proliferation defect ([7]; Tgfbr2^fl/fl, Wnt1-Cre mice following telmisartan treatment): restored cell proliferation defect
- cleft palate (in words) [7]: prevents the cleft palate
- cleft palate (in words) ([7]; listed as Telmisartan): rescue cleft palate defects
- cleft palate rescued, number of Tgfbr2^fl/fl; Wnt1-Cre mice ([7]; oral telmisartan 0.5 mg per day to pregnant females from E0.5): 5/18
- up-regulated p38 MAPK activity (p38 MAPK [8]): restored to normal
- increased triacylglycerol level [9]: restored to normal

Molecule: CCCCc1nc(Cl)c(CO)n1Cc1ccc(-c2ccccc2-c2nn[nH]n2)cc1 [losartan]
- enlarged aorta [10]: prevents the enlarged aorta

B1: Fgf7: Fgf7 protein on beads placed into E13.5 palatal shelves in vitro (protein)
chain: CNDMSPEQTATSVNCSSPERHTRSYDYMEGGDIRVRRLFCRTQWYLRIDKRGKVKGTQEMKNSYNIMEIRTVAVGIVAIKGVESEYYLAMNKEGKLYAKKECNEDCNFKELILENHYNTYASAKWTHSGGEMFVALNQKGIPVKGKKTKKEQKTAHFLPMAIT
- Shh expression in the palatal epithelium ([11]; Dlx5−/− samples): inhibit Shh expression
- Shh expression in the palatal epithelium ([11]; E13.5 palatal shelves, one day of culture, compared to BSA): dramatic reduction
